Reference: patent publication US8227406B2, “Antimicrobial peptides” (Dermagen AB, priority 2006, dated 2012)
Values joined by “and” are separate entries in the source; they are usually repeats but may differ in a detail not shown here. Identical values can stand only once. Where no end group is shown, it is not given here.

Legend:
[1] = tested on: Candida albicans ATCC90028; assay: Radial diffusion assay (RDA), C. albicans; type: cell-based; set-up: unit not given here; conditions: for RDA Mean, C. albicans / RDA Data (single replicates), C. albicans: Table 1c; for RDA Data (single replicates), C. albicans: individual values
Experimental: (§1) Peptides. Peptides were from Sigma-Genosys, generated by a peptide synthesis platform (PEPscreen®, Custom Peptide Libraries, SigmaGenosys). Yield was ˜1-6 mg, and peptide length 20 amino acids. MALDI-ToF Mass Spectrometry was perfomed on these peptides. Average Crude Purity of 20mers was ˜60%. Peptides were supplied lyophilized and in a 96-well tube rack. Prior to biological testing the PEPscreen peptides were diluted in dH2O (5 mM stock), and stored at −20 C. This stock solution was used for the subsequent experiments.
(§2) Eschericia coli ATCC25922, Staphylococcus aureus ATCC29213, and the fungal isolate Candida albicans ATCC90028 were obtained from the Department of Bacteriology, Lund University Hospital.
(§3) Radial diffusion assays (RDA) were performed essentially as described earlier (Lehrer, R. I., Rosenman, M., Harwig, S. S., Jackson, R. & Eisenhauer, P. (1991) Ultrasensitive assays for endogenous antimicrobial polypeptides, J Immunol Methods. 137, 167-73). Briefly, bacteria (E. coli, S. aureus) or fungi (C. albicans) were grown to midlogarithmic phase in 10 ml of full-strength (3% w/v) trypticase soy broth (TSB) (Becton-Dickinson, Cockeysville, Md.). The microorganisms were washed once with 10 mM Tris, pH 7.4. 4×10^6 bacterial cfu or 1×10^5 fungal cfu was added to 5 ml of the underlay agarose gel, consisting of 0.03% (w/v) TSB, 1% (w/v) low-electroendoosmosistype (Low-EEO) agarose (Sigma, St Louise Mo.) and a final concentration of 0.02% (v/v) Tween 20 (Sigma). The underlay was poured into a Ø 85 mm petri dish. After agarose solidified, 4 mm-diameter wells were punched and 6 μl of test sample was added to each well. Plates were incubated at 37° C. for 3 hours to allow diffusion of the peptides. The underlay gel was then covered with 5 ml of molten overlay (6% TSB and 1% Low-EEO agarose in dH2O). Antimicrobial activity of a peptide is visualized as a clear zone around each well after 18-24 hours of incubation at 37° C. for bacteria and 28° C. for Candida albicans. Other examples of peptides that were screened and found to show an increased effect against the above mentioned microorgansism are listed below. Some of the results are found in table 1c showing the effects against C. albicans, table 1d E. coli and table 1e S. aureus.

[2] = tested on: Eschericia coli ATCC25922; assay: Radial diffusion assay (RDA), E. coli; type: cell-based, Escherichia coli; set-up: Data (RDA antimicrobial activity, single replicates) / Mean (RDA antimicrobial activity): unit not given here; conditions: for Data (RDA antimicrobial activity, single replicates) / Mean (RDA antimicrobial activity): E. coli; for Data (RDA antimicrobial activity, single replicates): individual replicate; for Mean (RDA antimicrobial activity): mean of 3
Experimental: as §1, §2, §3

[3] = tested on: Staphylococcus aureus ATCC29213; assay: Radial diffusion assay (RDA), S. aureus; type: cell-based; set-up: Data (RDA antimicrobial activity, single replicates) / Mean (RDA antimicrobial activity): unit not given here; conditions: for Data (RDA antimicrobial activity, single replicates) / Mean (RDA antimicrobial activity): S. aureus; for Data (RDA antimicrobial activity, single replicates): individual replicate; for Mean (RDA antimicrobial activity): mean of 3
Experimental: as §1, §2, §3

## GKR-22: growth factor derived peptide, untagged parent of GKR22WWW; sequence not printed (GKRKKKGKGLGKKRDPCLRKYK; listed as Homo sapiens)
[1]; peptide 0.1 μM
  RDA Mean, C. albicans: 0.00
  RDA Data (single replicates), C. albicans: 0.00
[1]; peptide 0.5 μM
  RDA Mean, C. albicans: 0.00
  RDA Data (single replicates), C. albicans: 0.00
[1]; peptide 1 μM
  RDA Mean, C. albicans: 0.00
  RDA Data (single replicates), C. albicans: 0.00
[1]; peptide 5 μM
  RDA Mean, C. albicans: 0.00
  RDA Data (single replicates), C. albicans: 0.00
[1]; peptide 10 μM
  RDA Mean, C. albicans: 0.00
  RDA Data (single replicates), C. albicans: 0.00
[1]; peptide 50 μM
  RDA Mean, C. albicans: 1.04
  RDA Data (single replicates), C. albicans: 1.04 and 1.08 and 1.01
[1]; peptide 100 μM
  RDA Mean, C. albicans: 3.16
  RDA Data (single replicates), C. albicans: 3.66 and 3.31 and 2.50
[2]; peptide 0.1 μM
  Data (RDA antimicrobial activity, single replicates): 0
  Mean (RDA antimicrobial activity): 0.00
[2]; peptide 0.5 μM
  Data (RDA antimicrobial activity, single replicates): 0
  Mean (RDA antimicrobial activity): 0.00
[2]; peptide 1 μM
  Data (RDA antimicrobial activity, single replicates): 0
  Mean (RDA antimicrobial activity): 0.00
[2]; peptide 5 μM
  Data (RDA antimicrobial activity, single replicates): 1.88 and 1.85 and 2.07
  Mean (RDA antimicrobial activity): 1.93
[2]; peptide 10 μM
  Data (RDA antimicrobial activity, single replicates): 2.07 and 3.47 and 2.74
  Mean (RDA antimicrobial activity): 2.76
[2]; peptide 50 μM
  Data (RDA antimicrobial activity, single replicates): 3.68 and 3.65 and 3.61
  Mean (RDA antimicrobial activity): 3.65
[2]; peptide 100 μM
  Data (RDA antimicrobial activity, single replicates): 4.5 and 5.24 and 4.19
  Mean (RDA antimicrobial activity): 4.64
[3]; peptide 0.1 μM
  Data (RDA antimicrobial activity, single replicates): 0
  Mean (RDA antimicrobial activity): 0.00
[3]; peptide 0.5 μM
  Data (RDA antimicrobial activity, single replicates): 0
  Mean (RDA antimicrobial activity): 0.00
[3]; peptide 1 μM
  Data (RDA antimicrobial activity, single replicates): 0.4 and 0.26 and 0.25
  Mean (RDA antimicrobial activity): 0.30
[3]; peptide 5 μM
  Data (RDA antimicrobial activity, single replicates): 1.87 and 1.67 and 2.03
  Mean (RDA antimicrobial activity): 1.86
[3]; peptide 10 μM
  Data (RDA antimicrobial activity, single replicates): 2.37 and 2.46 and 1.95
  Mean (RDA antimicrobial activity): 2.26
[3]; peptide 50 μM
  Data (RDA antimicrobial activity, single replicates): 3.03 and 3.09 and 2.96
  Mean (RDA antimicrobial activity): 3.03
[3]; peptide 100 μM
  Data (RDA antimicrobial activity, single replicates): 3.88 and 3.94 and 3.07
  Mean (RDA antimicrobial activity): 3.63

## GKRKKKGKGLGKKRDPCLRKYKWWW [GKR-22-WWW]
[1]; peptide 0.1 μM
  RDA Mean, C. albicans: 0.00
  RDA Data (single replicates), C. albicans: 0.00
[1]; peptide 0.5 μM
  RDA Mean, C. albicans: 0.00
  RDA Data (single replicates), C. albicans: 0.00
[1]; peptide 1 μM
  RDA Mean, C. albicans: 0.00
  RDA Data (single replicates), C. albicans: 0.00
[1]; peptide 5 μM
  RDA Mean, C. albicans: 0.00
  RDA Data (single replicates), C. albicans: 0.00
[1]; peptide 10 μM
  RDA Mean, C. albicans: 0.66
  RDA Data (single replicates), C. albicans: 0.50 and 0.94 and 0.54
[1]; peptide 50 μM
  RDA Mean, C. albicans: 1.65
  RDA Data (single replicates), C. albicans: 1.95 and 1.59 and 1.40
[1]; peptide 100 μM
  RDA Mean, C. albicans: 5.55
  RDA Data (single replicates), C. albicans: 5.30 and 5.74 and 5.62
[2]; peptide 0.1 μM
  Data (RDA antimicrobial activity, single replicates): 0
  Mean (RDA antimicrobial activity): 0.00
[2]; peptide 0.5 μM
  Data (RDA antimicrobial activity, single replicates): 0.14 and 0.85 and 0.17
  Mean (RDA antimicrobial activity): 0.39
[2]; peptide 1 μM
  Data (RDA antimicrobial activity, single replicates): 2.74 and 3.2 and 2.59
  Mean (RDA antimicrobial activity): 2.84
[2]; peptide 5 μM
  Data (RDA antimicrobial activity, single replicates): 2.97 and 3.58 and 3.2
  Mean (RDA antimicrobial activity): 3.25
[2]; peptide 10 μM
  Data (RDA antimicrobial activity, single replicates): 5.67 and 5.68 and 5.48
  Mean (RDA antimicrobial activity): 5.61
[2]; peptide 50 μM
  Data (RDA antimicrobial activity, single replicates): 6.61 and 6.64 and 6.47
  Mean (RDA antimicrobial activity): 6.57
[2]; peptide 100 μM
  Data (RDA antimicrobial activity, single replicates): 7.8 and 8.04 and 8.12
  Mean (RDA antimicrobial activity): 7.99
[3]; peptide 0.1 μM
  Data (RDA antimicrobial activity, single replicates): 0
  Mean (RDA antimicrobial activity): 0.00
[3]; peptide 0.5 μM
  Data (RDA antimicrobial activity, single replicates): 0.36 and 0.49 and 0.6
  Mean (RDA antimicrobial activity): 0.48
[3]; peptide 1 μM
  Data (RDA antimicrobial activity, single replicates): 3.6 and 3.67 and 3.78
  Mean (RDA antimicrobial activity): 3.68
[3]; peptide 5 μM
  Data (RDA antimicrobial activity, single replicates): 3.87 and 4.57 and 4.53
  Mean (RDA antimicrobial activity): 4.32
[3]; peptide 10 μM
  Data (RDA antimicrobial activity, single replicates): 6.04 and 6.87 and 5.73
  Mean (RDA antimicrobial activity): 6.21
[3]; peptide 50 μM
  Data (RDA antimicrobial activity, single replicates): 7.12 and 8.12 and 7.41
  Mean (RDA antimicrobial activity): 7.55
[3]; peptide 100 μM
  Data (RDA antimicrobial activity, single replicates): 7.4 and 8.78 and 8.05
  Mean (RDA antimicrobial activity): 8.08

## HKHGHLHLKHKNKGKKNGKH [Peptide 36]
[1]; Table 1a, RDA clear zone
  Candida albicans ATCC 90028 Mean: 0.000
[2]; Table 1a, RDA clear zone, ingrowth counted
  E.coli ATCC 25922 Mean, Ingrowth* counted: 0.000
[2]; Table 1a, RDA clear zone, ingrowth not counted
  E.coli ATCC 25922 Mean, Ingrowth not counted: 0.000
[3]; Table 1a, RDA clear zone
  S. aureus ATCC 29213 Mean: 0.000

## PKR-21: growth factor derived peptide, untagged parent of PKR21WWW; sequence not printed (PKRKKKGGKNGKNRRNRKKKN; listed as Homo sapiens)
[1]; peptide 0.1 μM
  RDA Mean, C. albicans: 0.00
  RDA Data (single replicates), C. albicans: 0.00
[1]; peptide 0.5 μM
  RDA Mean, C. albicans: 0.00
  RDA Data (single replicates), C. albicans: 0.00
[1]; peptide 1 μM
  RDA Mean, C. albicans: 0.00
  RDA Data (single replicates), C. albicans: 0.00
[1]; peptide 5 μM
  RDA Mean, C. albicans: 0.00
  RDA Data (single replicates), C. albicans: 0.00
[1]; peptide 10 μM
  RDA Mean, C. albicans: 0.46
  RDA Data (single replicates), C. albicans: 0.42 and 0.39 and 0.58
[1]; peptide 50 μM
  RDA Mean, C. albicans: 4.04
  RDA Data (single replicates), C. albicans: 4.66 and 3.95 and 3.51
[1]; peptide 100 μM
  RDA Mean, C. albicans: 4.59
  RDA Data (single replicates), C. albicans: 4.65 and 4.56 and 4.55
[2]; peptide 0.1 μM
  Data (RDA antimicrobial activity, single replicates): 0
  Mean (RDA antimicrobial activity): 0.00
[2]; peptide 0.5 μM
  Data (RDA antimicrobial activity, single replicates): 0.3 and 0.7 and 0.58
  Mean (RDA antimicrobial activity): 0.53
[2]; peptide 1 μM
  Data (RDA antimicrobial activity, single replicates): 0.56 and 0.97 and 1.02
  Mean (RDA antimicrobial activity): 0.85
[2]; peptide 5 μM
  Data (RDA antimicrobial activity, single replicates): 0.63 and 1.65 and 0.55
  Mean (RDA antimicrobial activity): 0.94
[2]; peptide 10 μM
  Data (RDA antimicrobial activity, single replicates): 0.94 and 1.08 and 1.02
  Mean (RDA antimicrobial activity): 1.01
[2]; peptide 50 μM
  Data (RDA antimicrobial activity, single replicates): 1.16 and 1.52 and 1.01
  Mean (RDA antimicrobial activity): 1.23
[2]; peptide 100 μM
  Data (RDA antimicrobial activity, single replicates): 1.34 and 1.37 and 1.39
  Mean (RDA antimicrobial activity): 1.37
[3]; peptide 0.1 μM
  Data (RDA antimicrobial activity, single replicates): 0
  Mean (RDA antimicrobial activity): 0.00
[3]; peptide 0.5 μM
  Data (RDA antimicrobial activity, single replicates): 0
  Mean (RDA antimicrobial activity): 0.00
[3]; peptide 1 μM
  Data (RDA antimicrobial activity, single replicates): 0
  Mean (RDA antimicrobial activity): 0.00
[3]; peptide 5 μM
  Data (RDA antimicrobial activity, single replicates): 0
  Mean (RDA antimicrobial activity): 0.00
[3]; peptide 10 μM
  Data (RDA antimicrobial activity, single replicates): 0.17 and 0.4 and 0.77
  Mean (RDA antimicrobial activity): 0.45
[3]; peptide 50 μM
  Data (RDA antimicrobial activity, single replicates): 1.06 and 1.6 and 1.24
  Mean (RDA antimicrobial activity): 1.30
[3]; peptide 100 μM
  Data (RDA antimicrobial activity, single replicates): 2.63 and 2.54 and 1.84
  Mean (RDA antimicrobial activity): 2.34
